Results: PubChem BioAssay AID2305 (GlaxoSmithKline (GSK), 2010)

Tested on: P. falciparum 3D7 growth, pLDH absorbance
Assay: blood-stage malaria parasite growth potency – strain 3D7, dose response (AID 2305)

| SMILES | IC50 [nM] |
| --- | --- |
| CS(=O)(=O)c1ccc(CCNCc2ccc(-c3ccc(CN(C(=O)c4cccc(C#N)c4)C4CCN(Cc5ccccc5)CC4)cc3)nc2)cc1 | 980 |
| CCN1CCN(CCNc2c3ccccc3nc3ccccc23)CC1 | 1020 |
| CS(=O)(=O)c1ccc(CNCc2cccc(-c3cccc(-c4nc5ccc(F)cc5[nH]4)c3)c2)cc1 | 560 |
| C[C@H](Cc1ccc(OCCCOc2ccc(C[C@@H](C)NC[C@H](O)c3cccc(Cl)c3)cc2)cc1)NC[C@H](O)c1cccc(Cl)c1 | 780 |
| c1ccc(C(c2cccs2)N2CCN(Cc3ccc(OCCCN4CCCCC4)cc3)CC2)cc1 (stereo not drawn) | 1230 |
| COc1ccc2nccc([C@@H](O)CN3CCC(NCCOc4cc(C(F)(F)F)ccc4F)CC3)c2c1 | 110 |
| COc1ccc2nccc([C@@H](O)CN3CCC(NCc4nc5c([N+](=O)[O-])cccc5[nH]4)CC3)c2c1 | 710 |
| Cc1cc(N)c2cc(NC(=O)/C=C/c3ccccc3)ccc2n1 | 760 |
| CCc1cc(Br)c(CNCCCNc2cc(=O)c3ccccc3[nH]2)s1 | 950 |
| COCCNCc1ccc(-c2ccc(CNc3ccc4ncccc4c3)cc2)cc1 | 1040 |
| O=C(CCc1cnc[nH]1)Nc1cccc(-c2ccc(-c3nc4ccc(F)cc4[nH]3)cc2)c1 | 240 |
| COc1ccccc1CCNc1ncnc2c1[nH]c1ccc(F)cc12 | 840 |
| c1ccc(CCNc2ccnc(Nc3ccc4n[nH]nc4c3)n2)cc1 | 860 |
| CCN(CC)CCN(Cc1ccc(-c2ccc(C(F)(F)F)cc2)cc1)C(=O)Cn1c(SCc2ccc(F)c(F)c2F)nc(=O)c2c1CCC2 | 1020 |
| COC(=O)CCCCOc1cc(Cc2cnc(N)nc2N)cc(OC)c1OC | 170 |
| CCOc1ccc2nc(C)cc(NN=Cc3cccc([N+](=O)[O-])c3)c2c1 | 660 |
| COc1cccc(C(=O)Nc2ccc(S(=O)(=O)c3cc4c(cc3OC)CCN(C)CC4)cc2)c1 | 1100 |
| CS(=O)(=O)c1ccc(CNCc2ccc(-c3cccc(-c4nc5ccc(F)cc5[nH]4)c3)cc2)cc1 | 320 |
| Cc1cc(Cl)c(Cl)cc1NC(=O)Nc1cccc(C(F)(F)F)c1 | 870 |
| O=S(=O)(Nc1cccc(CCN2CCC(N3CCCCC3)CC2)c1)c1cccc(C(F)(F)F)c1 | 980 |
| CN(C)CCNCc1cccc(-c2ccc3c(Nc4ccc(Oc5ccccn5)cc4)ccnc3c2)c1 | 230 |
| CC(C)(C)c1ccc(-c2ccccc2CNC(=O)c2cccc(O)c2)cc1 | 270 |
| CC(=O)Nc1ccc(C(=O)Nc2cccc(-c3cccc(-c4nc5ccc(F)cc5[nH]4)c3)c2)cn1 | 130 |

| SMILES | IC50 [nM] |
| --- | --- |
| OC(CN1CCN(C2CCCCC2)CC1)Cn1c2ccccc2c2cc(Br)ccc21 (stereo not drawn) | 860 |
| Cc1cc(NC(=O)c2ccco2)ccc1OC1CCN(Cc2ccc(F)cc2)CC1 | 590 |
| CCN(CC)C(=NCCCCCCN=C(NC(N)=NCc1ccc(Cl)cc1Cl)N(CC)CC)NC(N)=NCc1ccc(Cl)cc1Cl | 220 |
| CN1CCCN(c2ccnc3cc4c(cc23)N(C(=O)c2ccccc2Cl)CC4)CC1 | 1180 |
| Cc1cccc2[nH]cc(C3CCN(CCC4CCN(C(=O)/C=C/c5ccc(Cl)c(Cl)c5)CC4)CC3)c12 | 1220 |
| Cc1ccc(-c2ccc3c(c2)C=C(C(=O)NC2CCN(CCNC(=O)c4cccs4)CC2)CCC3)cc1 | 230 |
| O=C(NCc1ccccc1)c1nn(CCCN2CCC3(CC2)C(=O)NCN3c2ccccc2)cc1-c1ccc(Cl)c(Cl)c1 | 1050 |
| c1cc(CNC2CCN(CC3CCCCC3)CC2)cc(-n2ccnc2)c1 | 650 |
| CCN(CC)CCCC(C)Nc1c(-c2ccc(OC)cc2)cnc2ccccc12 (stereo not drawn) | 890 |
| CC(C)c1sc(N2CCN(C)CC2)nc1C(=O)Nc1ccc(F)cc1C(F)(F)F | 190 |
| COc1ccc(-c2cccc(NC(=O)c3cccc(C#N)c3)c2)cc1CN(C)CCO | 820 |
| CCCCCCCC/C=C\CCCCCCCC(=O)NCc1ccc(O)c(OC)c1 | 400 |
| CCCCN(CCCC)C(=N)c1cccc2c1CCCC2 | 1560 |
| NC(N)=NN=CC(=O)Nc1cccc(C(F)(F)F)c1 | 1000 |
| Cn1c(N)c(N=O)c(=O)[nH]c1=O | 180 |
| CC1CCC(C(C)C)C(OC(=O)CSc2nnc3c(n2)[nH]c2ccccc23)C1 (stereo not drawn) | 930 |
| O=c1cc(NCCCNCc2cccc(OC(F)(F)C(F)F)c2)[nH]c2ccccc12 | 1270 |
| Oc1ccc(-c2ccccc2)cc1CN1CCCCC1 | 900 |
| COC(=O)c1ccc(-c2ccc(C(=O)NCC3CCN(c4nc(N)c5cc(OC)c(OC)cc5n4)CC3)cc2)cc1 | 180 |
| Cc1cccc2[nH]c(-c3ccc(-c4cccc(NC(=O)NCc5ccc(F)cc5)c4)cc3)nc12 | 150 |
| CN(C)CCOc1cccc(-c2cnc(N)c(-c3nc4ccc(S(C)(=O)=O)cc4[nH]3)c2)c1 | 950 |
| CCCCCN1CCCC(NS(=O)(=O)c2ccc(C(=O)Nc3ccc(C(F)(F)F)cc3)cc2)C1 (stereo not drawn) | 1630 |
| CCNc1cc(C(=O)N[C@@H](Cc2ccccc2)[C@H](O)CNC(C)(C)Cc2cccc(Cl)c2)cc(N2CCCCS2(=O)=O)c1 | 890 |

| SMILES | IC50 [nM] |
| --- | --- |
| COc1cc(C2CCN(CCCCNC(=O)c3ccc(NC(=O)c4ccc(Cl)c(Cl)c4)cc3)CC2)ccc1OC(C)C | 320 |
| Cc1c(Br)cc2[nH]c(-c3ccc(C(=O)NC4CCN(Cc5ccccc5)CC4)cc3)nc2c1C | 330 |
| CC[C@H]1CN2CC[C@H]1C[C@H]2[C@H](O)c1cc(N2CCC3CCCCC3C2)nc2ccc(OC)cc12 (stereo partly drawn) | 170 |
| CCOC(=O)C1=C(C)N=c2sc(=Cc3cc(Cl)ccc3O)c(=O)n2C1c1ccc(OC)cc1 (stereo not drawn) | 750 |
| O=C(Nc1cccc(Cl)c1)OC1CCCN2CCCCC12 (stereo not drawn) | 1020 |
| CC[C@H]1CN2CC[C@H]1C[C@H]2[C@@H](O)c1cc(OCCCN(C)C)nc2ccc(OC)cc12 | 130 |
| Cc1ccc(C(=O)Nc2ccc(C)c(OC3CCN(CCC(C)C)C3)c2)cc1 (stereo not drawn) | 790 |
| C[C@@H]1CC[C@H](NC(=O)[C@H](CC2CCCC2)NC(=O)N2CCNCC2)C(=O)CN1S(=O)(=O)c1ccccn1 | 890 |
| CN1CCN(CCCN(Cc2ccc(-c3ccc(CNCc4ccc5c(c4)OCO5)cc3)cc2)C(=O)CCC2CCCC2)CC1 | 950 |
| Nc1nc2ccc(CN(C=O)c3ccc(C(=O)N[C@@H](CCC(=O)O)C(=O)O)cc3)cc2c(=O)[nH]1 | 180 |
| OCc1c(Cl)cc(Cl)cc1CNCCCNc1nc2ccccc2[nH]1 | 740 |
| O=C(Nc1cccc(CN2CCCN(Cc3ccc(O)cc3)CC2)c1)c1ccc2ccccc2c1 | 370 |
| O=C(Nc1cccc(Cl)c1Cl)N[C@H]1CCN(CCCCCNC(=O)[C@@H]2C[C@H]2c2ccc(Cl)c(Cl)c2)C1 | 1280 |
| Cc1cc(N[C@@H](CC(C)C)C(=O)NCCOc2ccccc2)nc(NCC2CCCCC2)n1 | 970 |
| CC(=O)Nc1ccc(OCCN(CC(C)C)c2ccc(C(F)(F)F)c(C#N)c2)c(Cl)c1 | 310 |
| CCOc1cc(C)ccc1C1CCN(CCCCNC(=O)c2ccc(-c3ccc(C(F)(F)F)cn3)cc2)CC1 | 790 |
| O=C(N[C@H](Cc1ccc(Cl)cc1)C(=O)N1CCN(c2ccnc3cc(Cl)ccc23)CC1)[C@H]1Cc2ccccc2CN1 | 420 |
| OC(CNc1ccnc(Nc2cccc(Cl)c2)n1)c1cccc(C(F)(F)F)c1 (stereo not drawn) | 510 |
| O=C(N[C@@H](Cc1ccccc1)C(=O)O)c1cc(-c2ccc(F)cc2)no1 (tested in a mixture with another compound) | 800 |
| COc1ccc2ncc(F)c(CCN3CCC[C@H](CNCc4ccc5c(n4)NC(=O)CS5)C3)c2n1 | 970 |
| C[C@@H](CC1CCCCC1)OC(=O)N(C)[C@H]1CCN(C#N)C1 | 220 |
| O=C1CCCN1CCCNCc1ccc(-c2cccc(-c3nc4ccccc4[nH]3)c2)cc1 | 1020 |
